Source: PMC6009894, “Molecular modelling insights into a physiologically favourable approach to eicosanoid biosynthesis inhibition through novel thieno[2,3-b]pyridine derivatives” (Journal of Enzyme Inhibition and Medicinal Chemistry, 2018)
“And” between values parts separate entries of the source, which are not always exact repeats. Equal values may be shown once.

Key:
COX-2 (human) = target: T1, COX-2 (human) (Homo sapiens, UniProt P35354); assay: COX-2 (human) Inhibitor Screening Assay Kit (Cayman); format: biochemical; details: for selectivity index COX-2/COX-1: towards COX-2 than COX-1
T1 construct: purchased Cayman (Ann Arbor, MI) 701080
T1 sequence (P35354 18-604): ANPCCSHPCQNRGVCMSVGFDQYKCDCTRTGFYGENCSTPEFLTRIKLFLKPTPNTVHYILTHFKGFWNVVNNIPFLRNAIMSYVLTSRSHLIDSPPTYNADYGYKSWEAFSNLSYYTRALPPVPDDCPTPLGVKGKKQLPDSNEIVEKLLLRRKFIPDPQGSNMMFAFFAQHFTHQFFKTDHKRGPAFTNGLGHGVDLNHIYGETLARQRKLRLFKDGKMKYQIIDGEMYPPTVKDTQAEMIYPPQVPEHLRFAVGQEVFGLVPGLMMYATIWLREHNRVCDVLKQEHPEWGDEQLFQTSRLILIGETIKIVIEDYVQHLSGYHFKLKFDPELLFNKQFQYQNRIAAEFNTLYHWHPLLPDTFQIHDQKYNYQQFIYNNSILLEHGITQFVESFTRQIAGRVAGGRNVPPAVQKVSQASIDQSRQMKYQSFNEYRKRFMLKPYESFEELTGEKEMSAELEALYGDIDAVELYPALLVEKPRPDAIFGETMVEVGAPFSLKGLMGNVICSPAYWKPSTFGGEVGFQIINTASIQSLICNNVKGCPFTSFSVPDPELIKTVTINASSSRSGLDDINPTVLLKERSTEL
Text: (§1) The used protocol was according to the manufacturer protocol guide and instructions using ELISA plate reader.

COX-1 (human) = target: T2, COX-1 (human) (Homo sapiens, UniProt P23219); assay: COX-1 (human) Inhibitor Screening Assay Kit (Cayman); format: biochemical
T2 construct: purchased Cayman (Ann Arbor, MI) 701070
Text: as §1

5-LOX = target: T3, 5-LOX (Homo sapiens, UniProt P09917); assay: 5-LOX Inhibitor Screening Assay Kit (Cayman); format: biochemical; details: for 5-LOX IC50 level: in words
T3 sequence (P09917 1-674): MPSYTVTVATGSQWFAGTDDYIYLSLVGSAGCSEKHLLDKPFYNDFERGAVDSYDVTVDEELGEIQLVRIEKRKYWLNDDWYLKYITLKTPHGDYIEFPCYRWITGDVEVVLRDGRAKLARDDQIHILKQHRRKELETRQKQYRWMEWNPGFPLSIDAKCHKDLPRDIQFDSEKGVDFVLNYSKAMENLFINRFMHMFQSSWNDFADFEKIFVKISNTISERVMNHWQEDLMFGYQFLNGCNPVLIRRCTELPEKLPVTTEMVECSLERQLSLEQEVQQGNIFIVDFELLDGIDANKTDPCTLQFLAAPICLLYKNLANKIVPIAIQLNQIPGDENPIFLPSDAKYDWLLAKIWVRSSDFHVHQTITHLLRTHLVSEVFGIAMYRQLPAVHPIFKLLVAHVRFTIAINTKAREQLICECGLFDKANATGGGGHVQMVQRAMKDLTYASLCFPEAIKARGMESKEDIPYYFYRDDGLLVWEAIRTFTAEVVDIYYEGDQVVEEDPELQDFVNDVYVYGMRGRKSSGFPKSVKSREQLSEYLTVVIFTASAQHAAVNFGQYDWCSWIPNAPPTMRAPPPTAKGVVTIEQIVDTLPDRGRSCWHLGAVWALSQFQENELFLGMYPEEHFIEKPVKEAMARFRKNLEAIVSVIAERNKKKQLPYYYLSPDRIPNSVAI
Text: as §1

[1] = system: carrageenan-induced rat paw oedema; assay: carrageenan-induced rat paw oedema assay; format: in vivo, Sprague–Dawley rats; details: for Inhibition of acute inflammation % inh / Swel (mean difference in rat paw volume between right and left paw): dose equivalent to 70 mg kg-1 ibuprofen; for Swel (mean difference in rat paw volume between right and left paw): DMSO; for inflammation reduction % (4h): rat paw oedema, 4 h time interval, subcutaneous, equimolar to ibuprofen 70 mg kg-1
Method: According to a priori test results, experiments were conducted on young adult male Sprague–Dawley rats (5 rats per group), weighing 140–170 g. The animals were housed at cages in a temperature controlled (25 ± 1 °C) environment and were fed ad libitum with standard laboratory chow and allowed free access to water. […] The animal protocol is in accordance with the Animal Ethical Care regulations in the Faculty of Pharmacy, Helwan University.
Compounds (equimolar to the reference drug) were dissolved in DMSO and administrated subcutaneously. One hour later, paw oedema was induced by subplantar injection of 0.1 ml of 1% carrageenan (Sigma-Aldrich, St. Louis, MO) into the right hind paw. Paw volume was measured using a water plethysmometer (Basile, Comerio, Italy). The difference between the right and left paw volume was measured at 1, 2, 3, and 4 h after induction of inflammation.
The control group (five rats per group) received DMSO subcutaneously and carrageenan in the subplantar region. Results were expressed as percentage inhibition of inflammation.

T2 sequence (P23219 24-599): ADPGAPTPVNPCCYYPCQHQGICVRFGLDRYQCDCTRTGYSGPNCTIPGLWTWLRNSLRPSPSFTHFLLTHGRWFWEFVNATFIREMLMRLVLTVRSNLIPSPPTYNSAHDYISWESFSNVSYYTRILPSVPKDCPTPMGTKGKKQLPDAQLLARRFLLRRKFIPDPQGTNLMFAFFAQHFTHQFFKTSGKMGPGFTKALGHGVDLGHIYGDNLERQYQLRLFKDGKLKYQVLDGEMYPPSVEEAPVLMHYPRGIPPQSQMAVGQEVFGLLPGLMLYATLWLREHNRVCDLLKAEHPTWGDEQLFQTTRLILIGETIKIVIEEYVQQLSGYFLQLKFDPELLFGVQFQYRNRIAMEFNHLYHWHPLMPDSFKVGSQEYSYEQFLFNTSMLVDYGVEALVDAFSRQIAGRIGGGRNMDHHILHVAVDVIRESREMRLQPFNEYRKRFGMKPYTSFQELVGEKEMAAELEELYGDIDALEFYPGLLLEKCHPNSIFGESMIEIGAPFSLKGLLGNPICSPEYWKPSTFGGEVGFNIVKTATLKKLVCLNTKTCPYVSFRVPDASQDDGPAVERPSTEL

Structure (SMILES)	IC50 (COX-2 (human))	COX-2 inhibition, times higher than 8a (COX-2 (human); compared with 8a) [times]	COX-2 inhibition, times higher than 8c (COX-2 (human); compared with 8c) [times]	selectivity index COX-2/COX-1 (COX-2 (human))	IC50 (COX-1 (human))	5-LOX inhibition, times higher than 8a (5-LOX; compared with 8a) [times]	5-LOX inhibition, times higher than 8c (5-LOX; compared with 8c) [times]	5-LOX IC50 level (5-LOX)	Inhibition of acute inflammation % inh ([1]; 1 h) [%]	Swel (mean difference in rat paw volume between right and left paw) ([1]; 1 h after carrageenan)	Inhibition of acute inflammation % inh ([1]; 2 h) [%]	Swel (mean difference in rat paw volume between right and left paw) ([1]; 2 h after carrageenan)	Inhibition of acute inflammation % inh ([1]; 3 h) [%]	Swel (mean difference in rat paw volume between right and left paw) ([1]; 3 h after carrageenan)	Inhibition of acute inflammation % inh ([1]; 4 h) [%]	Swel (mean difference in rat paw volume between right and left paw) ([1]; 4 h after carrageenan)	inflammation reduction % (4h) [1]	melting point [°C]	affinity towards COX-1 over COX-2 (COX-1 (human))	5-LOX inhibition, times less potent than 7a (5-LOX; compared with 7a)
Cc1cc(C)c2c(N)c(C(=O)NN=Cc3ccccc3)sc2n1 [Compound 7a, 3-Amino-4,6-dimethyl-thieno [2,3-b] pyridine-2-carboxylic acid benzylidene-hyrazide]	9.99 µM	3.6	1.8	4.6	45.9 µM	35	87	nanomolar level	37.68	0.143	42.3	0.15	71.2	0.156	73.54	0.16	73.5% and 73.54%			
Cc1cc(C)c2c(N)c(C(=O)N/N=C/c3ccc(Cl)cc3)sc2n1 [Compound 7b, 3-Amino-4,6-dimethyl-thieno [2,3-b] pyridine-2-carboxylic acid (4-chloro-benzylidene)-hyrazide]	7.5 µM and 7.52 µM			4.2	31.8 µM			nanomolar level	22.1	0.17	35.62	0.16	54.75	0.25	73.02	0.17	73.02%	280 to 282		
Cc1cc(C)c2c(n1)sc1c(=O)n(/N=C/c3ccc(Cl)cc3)nnc12 [Compound 8b, 7,9-Dimethyl-3-[(4-chloro-phenyl-methylene)amino]pyrido[3ˈ,2ˈ:4,5] thieno [3,2-d][1,2,3]triazin-4(3H)-one]	36 µM				19.9 µM			micromolar level	0	0.23	0	0.27	56.54	0.24	78.23	0.14	78.2% and 78.23%	255 to 257	approximately 2 fold	approximately 90 times
COc1ccc(/C=N/n2nnc3c(sc4nc(C)cc(C)c43)c2=O)cc1 [Compound 8c, 7,9-Dimethyl-3-[(4-methoxy-phenyl-methylene)amino]pyrido[3ˈ,2ˈ:4,5]thieno [3,2-d][1,2,3]triazin-4(3H)-one]	19 µM				7.7 µM and 7.66 µM			micromolar level	0	0.246	34.61	0.17	41.78	0.316	79.36	0.13	79.4% and 79.36%	240 to 242	approximately 2 fold	
